Data reported in the NIST ThermoML archive (doi:10.1021/je100381g).

Conditions: Fluid (supercritical or subcritical phases)

N#N [nitrogen]
Conditions | mass density [kg/m3]
265 K, 967 kPa | 12.355
265 K, 1937 kPa | 24.865
265 K, 3929 kPa | 50.84
265 K, 5996 kPa | 77.972
265 K, 7985 kPa | 104.063
265 K, 9835 kPa | 128.039
265 K, 15014 kPa | 192.346
265 K, 20022 kPa | 248.359
265 K, 25019 kPa | 297.183
265 K, 30006 kPa | 339.165
265 K, 35119 kPa | 376.198
265 K, 50041 kPa | 459.104
265 K, 74887 kPa | 549.76
265 K, 100559 kPa | 613.291
293 K, 965 kPa | 11.119
293 K, 1933 kPa | 22.306
293 K, 3923 kPa | 45.361
293 K, 5988 kPa | 69.244
293 K, 7971 kPa | 91.982
293 K, 9822 kPa | 112.91
293 K, 14872 kPa | 167.663
293 K, 19976 kPa | 218.428
293 K, 24948 kPa | 262.722
293 K, 29965 kPa | 302.337
293 K, 34993 kPa | 337.389
293 K, 39916 kPa | 367.801
293 K, 50130 kPa | 421
293 K, 74957 kPa | 513.932
293 K, 99903 kPa | 578.472
293 K, 125585 kPa | 628.863
293 K, 150976 kPa | 668.88
298.15 K, 10005 kPa | 112.564
298.15 K, 30026 kPa | 296.94
298.15 K, 49844 kPa | 413.221
298.15 K, 74988 kPa | 507.852
298.15 K, 100175 kPa | 573.318
298.15 K, 124825 kPa | 622.069
298.15 K, 151239 kPa | 664.101
350 K, 2974 kPa | 28.486
350 K, 4917 kPa | 46.878
350 K, 5971 kPa | 56.772
350 K, 7481 kPa | 70.762
350 K, 9976 kPa | 93.531
350 K, 13786 kPa | 127.029
350 K, 17230 kPa | 155.891
350 K, 20677 kPa | 183.287
350 K, 24132 kPa | 209.197
350 K, 27582 kPa | 233.51
350 K, 29848 kPa | 248.687
350 K, 34691 kPa | 279.018
350 K, 49978 kPa | 358.872
350 K, 74999 kPa | 452.98
350 K, 99994 kPa | 520.331
350 K, 124395 kPa | 571.157
350 K, 150364 kPa | 614.997
400 K, 1004 kPa | 8.432
400 K, 1999 kPa | 16.747
400 K, 2999 kPa | 25.04
400 K, 4000 kPa | 33.281
400 K, 5001 kPa | 41.463
400 K, 7000 kPa | 57.573
400 K, 8004 kPa | 65.564
400 K, 10000 kPa | 81.202
400 K, 14997 kPa | 118.841
400 K, 19991 kPa | 154.143
400 K, 24998 kPa | 187.116
400 K, 29991 kPa | 217.621
400 K, 35015 kPa | 246.029
400 K, 40004 kPa | 272.126
400 K, 49964 kPa | 318.659
400 K, 59948 kPa | 358.969
400 K, 69931 kPa | 394.143
400 K, 79958 kPa | 425.322
400 K, 89963 kPa | 453.061
400 K, 99951 kPa | 477.982
400 K, 110031 kPa | 500.804
400 K, 120573 kPa | 522.585
